“And” between values parts separate entries of the source, which are not always exact repeats. Equal values may be shown once.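 Cells were grown in 96-well plates and exposed to each compound for 48 hours at five concentrations; endpoints were interpolated linearly between bracketing concentrations, or set to the highest concentration if not reached. GI50 = concentration required for 50% inhibition of growth. TGI: total growth inhibition.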
What was measured:
Assay in all cases: inhibition of tumour cell growth, NCI panel, 48 h
[1] = system: DLD-1 colon
[2] = system: DMS 114 small cell lung
[3] = system: DMS 273 small cell lung
[4] = system: HOP-18 NSCLC
[5] = system: KM20L2 colon
[6] = system: LXFL 529 NSCLC
[7] = system: M19-MEL melanoma
[8] = system: MOLT-4 leukemia
[9] = system: NCI-H226 lung
[10] = system: NCI-H522 lung
[11] = system: NCI/ADR-RES ovarian
[12] = system: SK-MEL-5 melanoma
[13] = system: SNB-78 CNS
[14] = system: T-47D breast
[15] = system: TK-10 renal
[16] = system: XF 498 CNS

SMILES | TGI [1] | TGI [2] | TGI [3] | TGI [4] | TGI [5] | TGI [6] | TGI [7] | TGI [8] | TGI [9] | TGI [10] | TGI [11] | TGI [12] | TGI [13] | TGI [14] | TGI [15] | TGI [16] | GI50 [1] | GI50 [7] | GI50 [8] | GI50 [15]
CC(Oc1ccc(Oc2cnc3ccc(Cl)cc3n2)cc1)C(=O)O (centres undefined) | > 100 µM | > 100 µM | > 100 µM | > 100 µM | > 100 µM | > 100 µM | > 100 µM | > 100 µM | > 100 µM and 33.2 µM | 99.4 µM and > 100 µM | > 100 µM | > 100 µM | > 100 µM | > 100 µM | > 100 µM | > 100 µM |  |  |  | 
CC1(C)OC(=S)N(c2ccccc2)C12C=Cc1cc3ccccc3nc1S2 (centres undefined) | 97 µM | > 100 µM | > 100 µM |  | > 100 µM | > 100 µM | > 100 µM | > 100 µM | > 100 µM | > 100 µM |  | > 100 µM |  |  | > 100 µM | > 100 µM |  |  |  | 
O=c1cc(-c2ccccc2)[nH]c2cc(F)cc(F)c12 | > 100 µM | 93.2 µM | > 100 µM | > 100 µM |  | > 100 µM | > 100 µM | > 100 µM | 80.5 µM | 35.3 µM |  | > 100 µM |  |  | > 100 µM |  |  |  |  | 
COc1cc(C(=O)N[C@H]2CCc3cc(OC)c(OC)c(OC)c3-c3ccc(SC)c(=O)cc32)cc(OC)c1OC | 25 µM and > 100 µM | 0.144 µM | > 100 µM |  |  |  | 25 µM and > 100 µM | 25 µM and > 100 µM |  | 0.00974 µM |  | 0.324 µM and 0.0331 µM |  |  | 25 µM and > 100 µM |  | 0.0234 µM | 0.0156 µM | 0.0133 µM | 16.1 µM
COc1ccc(/C=C2/C(=O)N(C(=O)c3ccccc3O)N=C2C)cc1 | > 100 µM | 2.25 µM |  |  | > 100 µM | > 100 µM | > 100 µM | > 100 µM | 32.3 µM | 8.51 µM | 14.1 µM | 9.56 µM |  | > 100 µM | > 100 µM | > 100 µM |  |  |  | 
CC1(C)CC(=O)c2c(nc3c(ccc4ccccc43)c2-c2ccc(NC(=O)CCC(=O)Nc3ccc(-c4c5c(nc6c4ccc4ccccc46)CC(C)(C)CC5=O)cc3)cc2)C1 |  |  |  |  |  |  |  | > 100 µM | > 100 µM | > 100 µM | > 100 µM | > 100 µM |  | > 100 µM | > 100 µM |  |  |  |  | 
COc1ccc(-c2oc3cc(OC)c(OC)c(O)c3c(=O)c2OC)cc1 |  |  |  |  |  |  |  | > 100 µM | > 100 µM | > 100 µM | > 100 µM | > 100 µM |  | > 100 µM | > 100 µM |  |  |  |  | 
Cc1cccc2oc3c(c(=O)c12)CC(O)C(C)(C)O3 (centres undefined) |  |  |  |  |  |  |  | 83.2 µM | > 100 µM | 87.5 µM | > 100 µM | > 100 µM |  | > 100 µM | > 100 µM |  |  |  |  | 
COc1ccc(-c2c(-c3ccc(OC)cc3)n3c(=O)n(C)c(=O)n23)cc1 |  |  |  |  |  |  |  | > 100 µM | > 100 µM | > 100 µM | 89.9 µM | > 100 µM |  | 57.1 µM | > 100 µM |  |  |  |  | 
C=C1C[C@@H](O)[C@@H](Br)C(C)(C)[C@@]12C=CC(=O)CC2 |  |  |  |  |  |  |  | > 100 µM | > 26.3 µM | > 100 µM | > 100 µM | > 100 µM |  | > 100 µM | > 100 µM |  |  |  |  | 

From PubChem BioAssay (NCI)
